The values below come from ChEMBL document CHEMBL4196002, “Design, synthesis, mechanistic and histopathological studies of small-molecules of novel indole-2-carboxamides and pyrazino[1,2-a]indol-1(2H)-ones as potential anticancer agents effecting the reactive oxygen species production” (Eur J Med Chem, 2018).

The test system of one data set is MIA PaCa-2. The data set can be described thus: Antiproliferative activity human MIAPaCa2 cells after 48 hrs by propidium iodide staining-based fluorescence assay. It counts as functional, cell-based. Particulars: MIA PaCa-2, 48 h.
A short description of data set [1]: Inhibition of ROS generation in human PMN at 3.13 ug/ml after 50 mins by luminol-based chemiluminescence assay relative to control. It counts as functional.
Data set [2] in a line: Inhibition of ROS generation in human PMN at 12.5 ug/ml after 50 mins by luminol-based chemiluminescence assay relative to control. The class given is functional.
In the next data set the test system is HT-29. As to the kind of experiment: Antiproliferative activity human HT-29 cells after 48 hrs by propidium iodide staining-based fluorescence assay. It counts as functional, cell-based. The settings on record: HT-29, 48 h.
The nature of data set [3]: Cytotoxicity against human MCF10A cells assessed as cell viability at 50 uM after 96 hrs by MTT assay relative to control. The settings on record: read-out: Activity. It counts as cell-based, MCF-10A.
Data set [4] can be described thus: Antioxidant activity assessed as DPPH radical scavenging activity at 100 uM after 30 mins dark incubation. The class given is functional.
A short description of data set [5]: Antioxidant activity assessed as DPPH radical scavenging activity at 10 uM after 30 mins dark incubation. It counts as functional.
Data set [6] has as its target Epidermal growth factor receptor (Homo sapiens, UniProt P00533). The data set can be described thus: Inhibition of His6-tagged EGFR (unknown origin) cytoplasmic domain expressed in baculovirus infected Sf9 insect cells after 10 mins followed by addition of ATP-MgCl2 and measured after 1 hr by time-resolved fluorometric analysis.
Data set [7] can be described thus: Inhibition of ROS generation in human PMN at 1.56 ug/ml after 50 mins by luminol-based chemiluminescence assay relative to control. It counts as functional.
The nature of data set [8]: Inhibition of ROS generation in human PMN at 0.78 ug/ml after 50 mins by luminol-based chemiluminescence assay relative to control. It counts as functional.
Another data set has as its system A549. The data set can be described thus: Antiproliferative activity human A549 cells after 48 hrs by propidium iodide staining-based fluorescence assay. The class given is functional, cell-based. Particulars: A549, 48 h.
Another data set has as its system PC-3. The data set can be described thus: Antiproliferative activity human PC3 cells after 48 hrs by propidium iodide staining-based fluorescence assay. The class given is functional, cell-based. Particulars: PC-3, 48 h.
Another data set has as its target Tubulin (Homo sapiens) (UniProt P68371+Q9H4B7+P0DPH7+P68366+Q13509+Q71U36+P04350+Q3ZCM7+P07437+P68363+Q9BQE3+Q6PEY2+Q13885+Q9BVA1+Q9BUF5). The data set can be described thus: Inhibition of tubulin (unknown origin) polymerization assessed as tubulin assembly rate by fluorescence assay. It counts as protein-complex assay.
Data set [9] is described as follows: (§1) Inhibition of ROS generation in human PMN after 50 mins by luminol-based chemiluminescence assay. The class given is functional.
The species named for the next data set is Homo sapiens. Described as §1. It counts as functional.
The nature of data set [10]: Antioxidant activity assessed as DPPH radical scavenging activity at 50 uM after 30 mins dark incubation. The class given is functional.
Data set [11] is described as follows: Inhibition of ROS generation in human PMN at 6.25 ug/ml after 50 mins by luminol-based chemiluminescence assay relative to control. It counts as functional.
The subject of another data set is MCF7. The data set can be described thus: Antiproliferative activity human MCF7 cells after 48 hrs by propidium iodide staining-based fluorescence assay. The settings on record: MCF7, 48 h. The class given is functional, cell-based.
In data set [12] the target is Serine/threonine-protein kinase B-raf (Mus musculus, UniProt P28028, V600E). As to the kind of experiment: Inhibition of mouse full-length GST-tagged BRAF V600E mutant using recombinant human full length N-terminal His-tagged MEK1 as substrate preincubated for 60 mins followed by substrate addition and measured after 25 mins by ELISA.
Serine/threonine-protein kinase B-raf, sequence (P28028 whole entry, looked up, stated change not applied): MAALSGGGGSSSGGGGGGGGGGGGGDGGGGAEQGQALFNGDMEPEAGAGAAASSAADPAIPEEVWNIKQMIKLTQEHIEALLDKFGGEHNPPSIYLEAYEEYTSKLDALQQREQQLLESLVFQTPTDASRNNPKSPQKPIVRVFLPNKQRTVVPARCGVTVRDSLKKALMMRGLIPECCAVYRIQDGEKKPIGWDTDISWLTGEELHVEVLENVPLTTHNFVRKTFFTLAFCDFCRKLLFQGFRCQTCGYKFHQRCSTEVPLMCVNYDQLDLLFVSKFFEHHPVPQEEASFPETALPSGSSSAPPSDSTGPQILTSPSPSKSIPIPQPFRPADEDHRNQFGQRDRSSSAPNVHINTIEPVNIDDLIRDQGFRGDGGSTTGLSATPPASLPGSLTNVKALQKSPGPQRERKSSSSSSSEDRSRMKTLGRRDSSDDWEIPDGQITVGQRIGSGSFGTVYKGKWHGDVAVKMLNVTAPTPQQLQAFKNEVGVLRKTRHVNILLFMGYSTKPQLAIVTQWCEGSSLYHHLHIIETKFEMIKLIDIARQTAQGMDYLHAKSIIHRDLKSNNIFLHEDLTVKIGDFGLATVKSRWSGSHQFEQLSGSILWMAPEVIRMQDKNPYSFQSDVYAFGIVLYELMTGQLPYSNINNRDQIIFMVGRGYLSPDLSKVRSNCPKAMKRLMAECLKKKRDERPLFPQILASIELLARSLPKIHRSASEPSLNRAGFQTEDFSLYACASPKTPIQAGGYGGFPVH

Epidermal growth factor receptor, sequence (P00533 whole entry, the tested form may be a part): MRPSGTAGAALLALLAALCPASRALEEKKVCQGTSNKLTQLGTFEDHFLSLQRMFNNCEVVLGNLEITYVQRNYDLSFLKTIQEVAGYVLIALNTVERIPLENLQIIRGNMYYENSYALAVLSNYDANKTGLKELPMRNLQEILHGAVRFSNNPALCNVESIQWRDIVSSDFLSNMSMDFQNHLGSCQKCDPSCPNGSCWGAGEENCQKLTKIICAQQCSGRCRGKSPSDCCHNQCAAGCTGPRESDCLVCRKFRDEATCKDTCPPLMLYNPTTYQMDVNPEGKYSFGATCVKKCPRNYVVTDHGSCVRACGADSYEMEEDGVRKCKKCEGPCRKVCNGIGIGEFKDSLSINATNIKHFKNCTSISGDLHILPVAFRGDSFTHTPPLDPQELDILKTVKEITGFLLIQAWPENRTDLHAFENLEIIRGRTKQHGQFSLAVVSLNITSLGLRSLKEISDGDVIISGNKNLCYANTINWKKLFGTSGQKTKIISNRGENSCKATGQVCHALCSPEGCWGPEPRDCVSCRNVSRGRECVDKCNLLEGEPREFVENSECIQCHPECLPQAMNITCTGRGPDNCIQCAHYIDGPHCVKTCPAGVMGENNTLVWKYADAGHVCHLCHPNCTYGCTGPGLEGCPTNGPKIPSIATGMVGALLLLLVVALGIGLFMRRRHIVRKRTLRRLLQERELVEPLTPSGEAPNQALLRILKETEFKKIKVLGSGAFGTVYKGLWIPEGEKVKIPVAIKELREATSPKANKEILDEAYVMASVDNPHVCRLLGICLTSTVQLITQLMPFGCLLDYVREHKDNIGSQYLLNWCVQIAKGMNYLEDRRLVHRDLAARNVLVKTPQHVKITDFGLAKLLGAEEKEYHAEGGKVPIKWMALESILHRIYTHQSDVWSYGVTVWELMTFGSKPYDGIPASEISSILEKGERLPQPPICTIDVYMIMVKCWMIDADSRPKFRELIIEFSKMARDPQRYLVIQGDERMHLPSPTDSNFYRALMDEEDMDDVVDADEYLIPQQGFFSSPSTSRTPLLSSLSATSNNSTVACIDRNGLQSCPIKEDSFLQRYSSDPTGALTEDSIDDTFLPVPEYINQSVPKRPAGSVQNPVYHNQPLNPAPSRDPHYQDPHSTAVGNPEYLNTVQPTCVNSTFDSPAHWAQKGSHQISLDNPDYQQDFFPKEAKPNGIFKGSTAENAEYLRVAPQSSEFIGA

For `CCc1c2cc(C(F)(F)F)ccc2n2cc(Cc3ccccc3)[nH]c(=O)c12`, the IC50 in the data set with MIA PaCa-2 was 1.1 µM; in the data set on HT-29 it was 0.9 µM; in [6] it was 3.9 µM; with A549, 1.4 µM; in the data set with PC-3, 1 µM; in data set [9], 6.53 µM. The IC50 (with MCF7; in data set [12]) was 0.9 µM throughout. Besides, in data set [1], at 3.13 µg/mL the inhibition was 56%. In data set [2], this compound came in with an inhibition at 12.5 µg/mL of 89%. In addition, the viability at 96 h, 50 µM in [3] stood at 79%. Moreover, the Activity in [4] was 84.4%; in data set [5], 52.2%; at Tubulin (Homo sapiens), 1920 a.u; in data set [10] it was 72.9%. In addition, 1.56 µg/mL produced 42% inhibition in data set [7]. Further, in data set [8], the inhibition at 0.78 µg/mL came to 31%. In the data set filed under Homo sapiens, the inhibition result is “Dose-dependent effect”. The compound also displayed an inhibition at 6.25 µg/mL in [11] of 72%.
Turning to `CCc1c(C(=O)NC(CO)Cc2ccccc2)[nH]c2ccc(C(F)(F)F)cc12` (stereo not given), the IC50 in the data set on MIA PaCa-2 came out at 1.3 µM; in the data set with HT-29, 1.9 µM; in [6], 0.9 µM; with A549, 1.5 µM; with PC-3, 1.1 µM; in [9], 9.7 µM. For the same compound, the IC50 in the data set with MCF7 stood at 1.1 µM; in data set [12], 1 µM. Moreover, in [1], the inhibition at 3.13 µg/mL was 47%. Moreover, the inhibition at 12.5 µg/mL in [2] worked out at 79%. The viability at 96 h, 50 µM in data set [3] amounted to 80%. Also, the Activity is 78% in data set [4], 43.4% in data set [5], 2650 a.u at Tubulin (Homo sapiens) and 61.7% in [10]. The inhibition at 1.56 µg/mL in data set [7] was 31%. Also, the inhibition at 0.78 µg/mL in data set [8] is 26%. Also, in the data set filed under Homo sapiens, the inhibition entry is “Dose-dependent effect”. In addition, in data set [11], testing at 6.25 µg/mL gave an inhibition of 62%.
Consider `CCc1c(C(=O)NC(CO)Cc2ccc(Cl)cc2)[nH]c2ccc(Cl)cc12` (stereo not given), for which the IC50 in the data set with MIA PaCa-2 is 36 µM; with HT-29, 34.7 µM; with A549 it was 29.5 µM; in the data set on PC-3 it was 17.8 µM; in data set [9], 11.8 µM; in the data set on MCF7, 35.4 µM. Further, in [1], the inhibition at 3.13 µg/mL is 43%. For the same compound, the inhibition at 12.5 µg/mL in data set [2] came out at 74%. In data set [3], the viability at 96 h, 50 µM was 92%. Besides, the Activity in data set [4] amounted to 79.9%; in data set [5], 41.4%; in [10], 59.3%. In data set [7], this compound yielded an inhibition at 1.56 µg/mL of 28%. Further, the inhibition at 0.78 µg/mL in data set [8] was found to be 22%. Moreover, the inhibition result in the data set filed under Homo sapiens was “Dose-dependent effect”. This compound also showed an inhibition at 6.25 µg/mL in data set [11] of 58%.
With `Cc1c(C(=O)NC(CO)Cc2ccccc2)[nH]c2ccc(Cl)cc12` (stereo not given), the IC50 worked out at 2.6 µM in the data set on MIA PaCa-2; 2.9 µM with HT-29; 0.5 µM in [6]; 2.9 µM in the data set on A549; 2.5 µM in the data set on PC-3; 5.91 µM in [9]. In addition, the figures for the IC50 (in the data set on MCF7; in data set [12]) were 2.8 µM and 3.7 µM, respectively. In data set [1], this compound came in with an inhibition at 3.13 µg/mL of 58%. For the same compound, the inhibition at 12.5 µg/mL in data set [2] was 74%. Besides, in data set [3], the viability at 96 h, 50 µM turned out to be 90%. For the same compound, the Activity in data set [4] was 86.4%; in data set [5], 55.4%; at Tubulin (Homo sapiens), 2570 a.u; in data set [10] it was 72.7%. In data set [7], testing at 1.56 µg/mL gave an inhibition of 45%. Further, 0.78 µg/mL produced 39% inhibition in [8]. In addition, the inhibition entry in the data set filed under Homo sapiens was “Dose-dependent effect”. Further, testing at 6.25 µg/mL in [11] gave an inhibition of 65%.
Consider `O=c1[nH]c(Cc2ccccc2)cn2c1cc1ccccc12`, for which the IC50 was 13.8 µM in the data set on MIA PaCa-2; 13.8 µM in the data set on HT-29; 14.7 µM in the data set with A549; 13.4 µM in the data set on PC-3; 19 µM in data set [9]; 13.6 µM with MCF7. In data set [1], this compound returned an inhibition at 3.13 µg/mL of 40%. Also, the inhibition at 12.5 µg/mL in data set [2] turned out to be 68%. The viability at 96 h, 50 µM in data set [3] was 92%. Besides, the values for the Activity in [4], in data set [5] and in data set [10] were 65.9%, 29.3% and 52.4%, respectively. Besides, the inhibition at 1.56 µg/mL in data set [7] worked out at 27%. In data set [8], this compound displayed an inhibition at 0.78 µg/mL of 14%. The inhibition entry in the data set filed under Homo sapiens is “Dose-dependent effect”. For the same compound, in [11], the inhibition at 6.25 µg/mL was found to be 51%.
Take `O=C(NC(CO)Cc1ccccc1)c1cc2cc(Cl)ccc2[nH]1` (stereo not given): the IC50 worked out at 2.6 µM in the data set with MIA PaCa-2; 2.4 µM in the data set with HT-29; 0.8 µM in data set [6]; 1.9 µM in the data set with A549; 2.4 µM in the data set with PC-3; 11.3 µM in data set [9]. Further, the IC50 in the data set on MCF7 was 1.4 µM; in data set [12], 4.8 µM. Moreover, the inhibition at 3.13 µg/mL in data set [1] is 48%. Further, the inhibition at 12.5 µg/mL in data set [2] was found to be 77%. Also, the viability at 96 h, 50 µM in data set [3] was 89%. The Activity in [4] is 77.5%; in data set [5] it was 50.2%; on Tubulin (Homo sapiens) it was 2420 a.u; in data set [10], 61.2%. 1.56 µg/mL produced 33% inhibition in data set [7]. In data set [8], this compound yielded an inhibition at 0.78 µg/mL of 25%. In addition, the inhibition entry in the data set listed under Homo sapiens was “Dose-dependent effect”. In data set [11], this compound yielded an inhibition at 6.25 µg/mL of 60%.
With `CCc1c2cc(Cl)ccc2n2cc(Cc3ccccc3)[nH]c(=O)c12`, the IC50 in the data set on MIA PaCa-2 was 8.3 µM; with HT-29, 7.7 µM; in the data set with A549, 6 µM; in the data set with PC-3, 5.1 µM; in [9] it was 13.8 µM; in the data set with MCF7, 7.5 µM. The compound further returned an inhibition at 3.13 µg/mL in data set [1] of 37%. The compound also came in with an inhibition at 12.5 µg/mL in data set [2] of 72%. The viability at 96 h, 50 µM in data set [3] stood at 89%. Further, the Activity in data set [4] is 71.6%; in data set [5], 40.8%; in [10], 59%. Besides, 1.56 µg/mL produced 27% inhibition in [7]. In [8], 0.78 µg/mL produced 14% inhibition. Moreover, in the data set listed under Homo sapiens, the inhibition result was “Dose-dependent effect”. This compound had an inhibition at 6.25 µg/mL in data set [11] of 60%.
On to `O=C(NC(CO)Cc1ccccc1)c1cc2ccccc2[nH]1` (stereo not given), for which the IC50 in the data set with MIA PaCa-2 turned out to be 18.6 µM; with HT-29, 16.9 µM; in the data set on A549 it was 15.4 µM; in the data set with PC-3 it was 16.5 µM; in data set [9] it was 23.1 µM; in the data set with MCF7, 16.4 µM. Moreover, in data set [1], testing at 3.13 µg/mL gave an inhibition of 32%. The inhibition at 12.5 µg/mL in data set [2] worked out at 64%. Moreover, the viability at 96 h, 50 µM in data set [3] came out at 96%. The Activity in data set [4] came out at 64.6%; in data set [5], 24.8%; in [10], 50.1%. This compound came in with an inhibition at 1.56 µg/mL in data set [7] of 21%. Also, in [8], the inhibition at 0.78 µg/mL was 9%. Also, in the data set listed under Homo sapiens, the inhibition entry is “Dose-dependent effect”. Further, in data set [11], the inhibition at 6.25 µg/mL was determined as 47%.
